Assay results: patent US4952234A, “Imidazoledione compounds useful as herbicides” (Sankyo Company Limited, priority 1985, dated 1990)

Tests used:
Solubility = type: physicochemical
Source text: (j) solubility: soluble in water, methanol and ethanol; insoluble in ethyl acetate and acetone;

Komatsuna seeds = test: Inhibitory effect on the germination of Komatsuna seeds; type: in vivo, Brassica rapa (L) var. Komatsuna Hara; settings: Brassica rapa, 72 h; 28° C. for 3 days; read-out: minimum inhibitory concentration against the germination of Komatsuna seeds
Experimental: Sterilized cotton was placed on the bottom of a test tube (10 mm×100 mm) to a height of about 5 mm, and the cotton was then soaked with 0.5 ml of either distilled water or of an aqueous solution containing various concentrations of Substance No. 51262. About 10 seeds of the plant Komatsuna [Brassica rapa (L) var. Komatsuna Hara] were placed into each test tube and allowed to stand at 28° C. for 3 days to determine the inhibitory concentration of Substance No. 51262, assessed by the presence or absence of germination.

[1] = test system: paddy field rice, soybeans, corn, cotton and purple nutsedge; test: Plant growth retardation; type: in vivo
Source text: (§1) A plastic pot was filled with upland soil to provide a surface area of soil of 150 cm^2. Seeds of paddy field rice, soybeans corn and cotton were sowed, Tubers of the perennial weed, purple nutsedge (Cyperus rotundus) were then planted into each pot and the seeds and tubers were covered with the same soil. The pots were placed in a greenhouse for 10 days, after which aqueous solutions of Substance No. 51262 (prepared as described hereafter in Example 11) to the required concentrations were mixed with 0.03% v/v of the spreader Gramin S. 5 ml of the resulting solution were sprayed onto each pot. The growth of the resulting plants were compared after 2 weeks with a control which had not been so treated.

mice = settings: mouse, in vivo, iv, 100 mg/kg
Experimental: A solution of Substance No. 51262 was administered intravenously to mice in an amount of 100 mg/kg bodyweight.

various weeds = test: Herbicidal activity against weeds, pre- and post-emergence (summary statement); type: in vivo
purple nutsedge = test: Plant growth retardation, purple nutsedge; type: in vivo, Cyperus rotundus; settings: 500 ppm; after 2 weeks vs untreated control
Source text: as §1

Question: With `O=C1NC(=O)[C@@]2(N1)O[C@H](CO)[C@@H](O)[C@H]2O` [Substance No. 51262] as the compound, how does the solubility (Solubility; acetone) read?
Answer: The solubility was “insoluble”.

Question: And the solubility (Solubility; ethanol)?
Answer: Its solubility is “soluble”.

Question: And the solubility (Solubility; ethyl acetate)?
Answer: The solubility was “insoluble”.

Question: What about the solubility (Solubility; methanol) of the same compound?
Answer: The solubility was “soluble”.

Question: And the solubility (Solubility; water)?
Answer: Its solubility is “soluble”.

Question: What about the minimal effective concentration (Komatsuna seeds) of the same compound?
Answer: The minimal effective concentration was 3.13 µg/mL.

Question: And the growth retardation ([1]; 125 ppm, all plants, after 2 weeks vs untreated control)?
Answer: The growth retardation was “about 50%”.

Question: And the plant growth retardation ([1]; summary statement)?
Answer: The plant growth retardation was “can retard plant growth without killing the plants”.

Question: And the abnormalities observed (mice)?
Answer: Its abnormalities observed is “no abnormalities were detected”.

Question: And the herbicidal activity (various weeds)?
Answer: The herbicidal activity was “excellent herbicidal activity”.

Question: What about the “growth inhibition of the shoot and rhizome” value (purple nutsedge) of the same compound?
Answer: The value was “almost complete growth inhibition”.
